Source: US6902740B2, “Pyrrolidonoethyl (meth)acrylate containing pressure sensitive adhesive compositions” (3M Innovative Properties Company, priority 2001, dated 2005)

What was measured:
[1] = Accelerated drug solubility method (seeded crystal growth) in pressure sensitive adhesive; format: physicochemical
Description: The solubility of several drugs in IOA/PyEA 60/40 pressure sensitive adhesive copolymer was determined using an accelerated method which is described in detail below. Drug solubility in an IOA pressure sensitive adhesive homopolymer was used for comparison purposes.
In the accelerated drug solubility method, drug and pressure sensitive adhesive mixtures are made up over a wide range of drug concentrations and then these mixtures are seeded on their surface with pure drug crystal. If the crystals grow over time (typically one week) then the mixture is above the saturation concentration.
Separate stock solutions containing pressure sensitive adhesive in ethyl acetate and drug in a suitable solvent such as ethyl acetate or acetonitrile are prepared. The stock solutions are used to prepare 3 gram batches of drug and pressure sensitive adhesive solution. The amount of each stock solution needed is determined using the following equations, [formula] [formula] where: • C is the desired concentration of drug in pressure sensitive adhesive after solvent removal; • CDS is the concentration of drug in the drug stock solution; • CPS is the concentration of pressure sensitive adhesive in the polymer stock solution; • WDS is the weight in grams of drug stock solution; and • WPS is the weight in grams of pressure sensitive adhesive stock solution.
The calculated amounts of drug stock solution and pressure sensitive adhesive stock solution are combined in a glass vial. The vial is capped then shaken to provide a homogeneous solution.
Under a nitrogen atmosphere (e.g., in a glove box) individual drops of the drug and pressure sensitive adhesive solution are placed on a microscope slide and allowed to dry. Additional drops of solution are applied to each original spot until the spot is covered. The second application is allowed to dry. Applications are continued until a 2-3 mil (51-76 μm) layer has been built up. After the final application the slide is allowed to sit in the nitrogen atmosphere for at least 10 minutes.
The slide is removed from the nitrogen atmosphere and seeded with a very tiny amount of dry crystalline drug. A photomicrograph is taken to document the initial appearance of the crystalline “seeds”. Periodically (e.g., daily or weekly) additional photomicrographs are taken and compared with earlier photomicrographs to determine if seed crystal growth or seed crystal absorption is occurring.
The results are usually reported as a range. The low value indicates the highest concentration sample where no crystal growth is observed. The high value indicates the lowest concentration where crystal growth is observed. In some instances additional work may be performed to narrow the range to a single value.

[2] = Lerisetron solubility in PSA by absorption from receptor solution; format: physicochemical
Description: The solubility of the drug lerisetron in two PSAs was determined by measurement of absorption of the drug into the pressure sensitive adhesive in a heterogeneous system. Lerisetron was dissolved in a receptor solution of HBSS buffer/ethanol (85:15 w:w) to give an initial concentration of 7.94 mg/10 mL. The 100% saturation concentration of lerisetron in the receptor solution is 9.93 mg/10 mL. A defined weight of pressure sensitive adhesive was added to 10 mL of receptor solution and the receptor solution was stirred for 4 hours. After the 4 hours of stirring, the concentration of lerisetron in the receptor solution was measured using standard HPLC techniques. The difference in the initial amount of lerisetron and the final amount of lerisetron in the solution is assumed to have been absorbed by the pressure sensitive adhesive. A partition coefficient between the receptor solution and pressure sensitive adhesive can be calculated. The solubility of lerisetron in the pressure sensitive adhesive can subsequently be determined based on the partition coefficient and the previously determined solubility of lerisetron in the receptor solution.

[3] = in IOA homopolymer (comparison)

| SMILES | Drug Solubility in Pressure Sensitive Adhesive Copolymer [1, 3] | Drug Solubility in Pressure Sensitive Adhesive Copolymer ([1]; in IOA/PyEA 60/40) | Lerisetron solubility in pressure sensitive adhesive ([2]; in Isooctyl Acrylate/Pyrrolidonoethyl Acrylate/Polymethyl Methacrylate Macromonomer (59/39/2)) [%] | Lerisetron solubility in pressure sensitive adhesive ([2]; in Isooctyl Acrylate/Pyrrolidonoethyl Acrylate/Polymethyl Methacrylate Macromonomer (73/25/2)) [%] | Lerisetron solubility in pressure sensitive adhesive ([2]; in control Isooctyl Acrylate/N-vinyl pyrrolidone/Polymethyl Methacrylate Macromonomer (77/20/3)) |
| --- | --- | --- | --- | --- | --- |
| CN1CCC(=C2c3ccccc3C=Cc3ccccc32)CC1 [Cyproheptadine] | 5-6 g drug/100 g pressure sensitive adhesive copolymer | 10-15 g drug/100 g pressure sensitive adhesive copolymer |  |  |  |
| c1ccc(Cn2c(N3CCNCC3)nc3ccccc32)cc1 [Lerisetron, lerisetron] |  |  | 7 | 3 | less than 1% |
| C[C@]12CC[C@H]3[C@@H](CCC4=CC(=O)CC[C@@]43C)[C@@H]1CC[C@@H]2O [Testosterone] | 0.5 g drug/100 g pressure sensitive adhesive copolymer | 4 g drug/100 g pressure sensitive adhesive copolymer |  |  |  |
